From patent publication US20220274961A1, “SUBSTITUTED FUSED BI- OR TRI- HETEROCYCLIC COMPOUNDS AS EHMT2 INHIBITORS” (priority 2016, published 2022) come the findings set out here.

The target in the first assay is T1, EHMT2 (Homo sapiens, UniProt Q96KQ7).
T1 construct: endogenous in cells; host or cells: MDA-MB-231 (ATCC)
T1 sequence (Q96KQ7 1-1210): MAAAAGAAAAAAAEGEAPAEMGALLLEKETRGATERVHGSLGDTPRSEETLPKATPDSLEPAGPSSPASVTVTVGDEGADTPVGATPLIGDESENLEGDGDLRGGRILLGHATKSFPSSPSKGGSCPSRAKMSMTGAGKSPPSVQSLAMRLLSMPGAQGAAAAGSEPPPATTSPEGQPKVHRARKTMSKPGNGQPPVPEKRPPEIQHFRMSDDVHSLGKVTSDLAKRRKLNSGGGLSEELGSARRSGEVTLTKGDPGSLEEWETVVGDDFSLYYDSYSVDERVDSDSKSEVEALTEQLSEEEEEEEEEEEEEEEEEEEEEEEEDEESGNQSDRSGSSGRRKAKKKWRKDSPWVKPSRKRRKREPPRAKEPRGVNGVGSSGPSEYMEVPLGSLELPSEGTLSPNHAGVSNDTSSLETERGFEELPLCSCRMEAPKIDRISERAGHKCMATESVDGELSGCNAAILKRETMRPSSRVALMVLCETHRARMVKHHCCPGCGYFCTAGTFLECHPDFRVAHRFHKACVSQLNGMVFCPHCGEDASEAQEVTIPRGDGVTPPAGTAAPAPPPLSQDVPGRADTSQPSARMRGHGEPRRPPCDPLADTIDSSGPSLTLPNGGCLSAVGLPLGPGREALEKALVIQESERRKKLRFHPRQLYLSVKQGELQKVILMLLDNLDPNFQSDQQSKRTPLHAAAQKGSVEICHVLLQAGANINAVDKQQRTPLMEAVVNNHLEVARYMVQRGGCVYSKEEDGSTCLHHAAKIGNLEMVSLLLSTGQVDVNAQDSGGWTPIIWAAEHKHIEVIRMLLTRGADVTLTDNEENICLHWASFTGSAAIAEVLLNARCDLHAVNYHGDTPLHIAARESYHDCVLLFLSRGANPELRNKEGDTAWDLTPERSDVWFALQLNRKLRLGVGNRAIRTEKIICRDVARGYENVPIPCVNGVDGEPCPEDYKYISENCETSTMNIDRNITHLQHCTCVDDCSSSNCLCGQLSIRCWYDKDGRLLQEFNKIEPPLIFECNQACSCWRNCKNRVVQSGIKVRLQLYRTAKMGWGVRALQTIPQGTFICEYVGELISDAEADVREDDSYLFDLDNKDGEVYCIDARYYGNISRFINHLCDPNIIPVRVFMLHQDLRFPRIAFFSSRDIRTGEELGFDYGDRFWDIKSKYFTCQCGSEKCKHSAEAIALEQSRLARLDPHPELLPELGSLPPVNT
The assay can be described thus: MDA-MB-231 H3K9me2 in-cell Western assay (EHMT2 ICW). It is filed as cell-based.
Details: not given
An excerpt:
MDA-MB-231 cell line was purchased from ATCC (Manassas, Va., USA). RPMI/Glutamax medium, Penicillin-Streptomycin, Heat Inactivated Fetal Bovine Serum, and D-PBS were purchased from Life Technologies (Grand Island, N.Y., USA). Odyssey blocking buffer, 800CW goat anti-mouse IgG (H+L) antibody, and Licor Odyssey Infrared Scanner were purchased from Licor Biosciences, Lincoln, Nebr., USA. H3K9me2 mouse monoclonal antibody (Cat #1220) was purchased from Abcam (Cambridge, Mass., USA). 16% Paraformaldehyde was purchased from Electron Microscopy Sciences, Hatfield, Pa., USA). MDA-MB-231 cells were maintained in complete growth medium (RPMI supplemented with 10% v/v heat inactivated fetal bovine serum) and cultured at 37° C. under 5% CO2. UNC0638 was purchased from Sigma-Aldrich (St. Louis, Mo., USA).
General Procedure for MDA-MB-231 HEK9me2 in-cell Western Assay. Compound (100 nL) was added directly to 384-well cell plate. MDA-MB-231 cells (ATCC) were seeded in assay medium (RPMI/Glutamax supplemented with 10% v/v heat inactivated fetal bovine serum and 1% Penicillin/Streptomycin, Life Technologies) at a concentration of 3,000 cells per well to a Poly-D-Lysine coated 384-well cell culture plate with 50 μL per well. Plates were incubated at 37° C., 5% CO2 for 48 hours (BD Biosciences 356697). Plates were incubated at room temperature for 30 minutes and then incubated at 37° C., 5% CO2 for additional 48 hours. After the incubation, 50 μL per well of 8% paraformaldehyde (Electron Microscopy Sciences) in PBS was added to the plates and incubated at room temperature for 20 minutes. Plates were transferred to a Biotek 406 plate washer and washed 2 times with 100 μL per well of wash buffer (1×PBS containing 0.3% Triton X-100 (v/v)). Next, 60 μL per well of Odyssey blocking buffer (Licor Biosciences) was added to each plate and incubated for 1 hour at room temperature. Blocking buffer was removed and 20 μL of monoclonal primary antibody α-H3K9me2 (Abcam) diluted 1:800 in Odyssey buffer with 0.1% Tween 20 (v/v) were added and plates were incubated overnight (16 hours) at 4° C. Plates were washed 5 times with 100 μL per well of wash buffer. Next 20 μL per well of secondary antibody was added (1:500 800CW donkey anti-mouse IgG (H+L) antibody (Licor Biosciences), 1:1000 DRAQ5 (Cell Signaling Technology) in Odyssey buffer with 0.1% Tween 20 (v/v)) and incubated for 1 hour at room temperature. The plates were washed 5 times with […] wash buffer then 2 times with 100 μL per well of water. Plates were allowed to dry at room temperature then imaged on a Licor Odyssey Infrared Scanner (Licor Biosciences) which measured integrated intensity at 700 nm and 800 nm wavelengths. Both 700 and 800 channels were scanned.
% Inhibition Calculation. First, the ratio for each well was determined by:
Each plate included fourteen control wells of DMSO only treatment (Minimum Inhibition) as well as fourteen control wells (background wells) for maximum inhibition treated with control compound UNC0638 (Background wells).
The average of the ratio values for each well was calculated and used to determine the percent inhibition for each test well in the plate. Control compound was serially diluted three-fold in DMSO for a total of 10 test concentrations beginning at 1 μM. Percent inhibition was calculated as: […]
IC50 curves were generated using triplicate wells per concentration of compound. The IC50 is the concentration of compound at which measured methylation is inhibited by 50% as interpolated from the dose response curves. IC50 values were calculated using a non-linear regression (variable slope-four parameter fit model) with by the following formula:
where Top is fixed at 100% and Bottom is fixed to 0%, [I]=concentration of inhibitor, IC50=half maximal inhibitory concentration, and n=Hill Slope.
One may read the IC50 as the midpoint of a concentration-inhibition curve. As for `COc1cc2c(cc1OCCCN1CCCC1)N=C(N)C21CCOC1` (centres unmarked) [Compound 7, 5′-methoxy-6′-(3-(pyrrolidin-1-yl)propoxy)-4,5-dihydro-2H-spiro[furan-3,3′-indol]-2′-amine], the half-inhibitory concentration (IC50) fell in the range of 0.1 to 1 µM.

Staying with this assay, now noted: MDA-MB-231 cells, H3K9me2 in-cell Western; read-out: EHMT2 ICW (IC50 μM).
Regarding `COc1cc2[nH]c(N)nc2cc1OCCCN1CCCC1` [Compound 1, 6-methoxy-5-(3-(pyrrolidin-1-yl)propoxy)-1H-benzo[d]imidazol-2-amine], the concentration for half-maximal inhibition (IC50) lay within 1 to 10 µM.
Still for that read-out and setting: for `COc1cc2c(cc1OCCCN1CCCC1)nc(N)n2C` [Compound 2, 6-methoxy-1-methyl-5-(3-(pyrrolidin-1-yl)propoxy)-1H-benzo[d]imidazol-2-amine] the value was 0.1 to 1 µM; for `COc1cc2c(cc1OCCCN1CCCC1)nc(N)n2C1CCCC1` [Compound 3, 1-cyclopentyl-6-methoxy-5-(3-(pyrrolidin-1-yl)propoxy)-1H-benzo[d]imidazol-2-amine], 0.1 to 1 µM; for `COc1cc2c(cc1OCCCN1CCCC1)N=C(N)C21CCOCC1` [Compound 5, 5-methoxy-6-(3-(pyrrolidin-1-yl)propoxy)-2′,3′,5′,6′-tetrahydrospiro[indole-3,4′-pyran]-2-amine], 0.1 to 1 µM.
The same measure, in the same setting: for `COc1cc2sc(N)nc2cc1OCCCN1CCCC1` [Compound 6, 6-methoxy-5-[3-(pyrrolidin-1-yl)propoxy]-1,3-benzothiazol-2-amine] the value was above 10 µM.
On to `CNc1nc2cc(OCCCN3CCCC3)c(OC)cc2n1C` [Compound 8, 6-methoxy-N,1-dimethyl-5-(3-(pyrrolidin-1-yl)propoxy)-1H-benzo[d]imidazol-2-amine], for which the half-inhibitory concentration (IC50) was below 0.1 µM.
Still for that read-out and setting: the value for `CCN1CC[C@@H](COc2cc3nc(N)n(C4CCCC4)c3cc2OC)C1` [Compound 9, 1-cyclopentyl-5-[[(3R)-1-ethylpyrrolidin-3-yl]methoxy]-6-methoxy-1H-1,3-benzodiazol-2-amine] was 0.1 to 1 µM; that for `CCN1CC(COc2cc3nc(N)n(C4CCCC4)c3cc2OC)C1` [Compound 10, 1-cyclopentyl-5-((1-ethylazetidin-3-yl)methoxy)-6-methoxy-1H-benzo[d]imidazol-2-amine] was 0.1 to 1 µM.
On to `COc1cc2c(cc1OCCCN1CCCC1)nc(N)n2CC(F)(F)F` [Compound 11, 6-methoxy-5-(3-(pyrrolidin-1-yl)propoxy)-1-(2,2,2-trifluoroethyl)-1H-benzo[d]imidazole-2-amine], for which the IC50 is 1 to 10 µM.
On the same count and under the same terms, the value for `COc1cc2c(cc1OCCCN1CCCC1)nc(NCC(F)(F)F)n2C` [Compound 12, 6-methoxy-1-methyl-5-(3-(pyrrolidin-1-yl)propoxy)-N-(2,2,2-trifluoroethyl)-1H-benzo[d]imidazol-2-amine] was 1 to 10 µM; that for `CNc1nc2cc(OCCCN3CCCC3)c(OC)cc2n1C1CCOCC1` [Compound 13, 6-methoxy-N-methyl-5-(3-(pyrrolidin-1-yl)propoxy)-1-(tetrahydro-2H-pyran-4-yl)-1H-benzo[d]imidazol-2-amine] was 0.1 to 1 µM; that for `COc1cc2c(cc1OCCCN1CCCC1)nc(N)n2CC1CCOCC1` [Compound 18] was 1 to 10 µM.
On the same count and under the same terms, the value for `COc1cc2c(cc1OCCCN1CCCC1)nc(N)n2C(C)C` [Compound 19] was 0.1 to 1 µM; that for `COc1cc2c(cc1OCCCN1CCCC1)nc(C)n2C` [Compound 21, 6-methoxy-1,2-dimethyl-5-(3-(pyrrolidin-1-yl)propoxy)-1H-benzo[d]imidazole] was above 10 µM.
Same read-out and setting: the value for `COc1cc2c(cc1OCCCN1CCCC1)nc(C1CCCC1)n2C` [Compound 22, 2-cyclopentyl-6-methoxy-1-methyl-5-(3-(pyrrolidin-1-yl)propoxy)-1H-benzo[d]imidazole] was above 10 µM.
For `COc1cc2c(cc1OCCCN1CCCC1)nc(C)n2C1CCCC1` [Compound 23, 1-cyclopentyl-6-methoxy-2-methyl-5-(3-(pyrrolidin-1-yl)propoxy)-1H-benzo[d]imidazole], the IC50 fell in the range of 1 to 10 µM.
On the same count and under the same terms, for `COc1cc2c(cc1C#CCN1CCCC1)N=C(N)C21CCC1` [Compound 24, 5′-methoxy-6′-(3-(pyrrolidin-1-yl)prop-1-yn-1-yl)spiro[cyclobutane-1,3′-indol]-2′-amine] the value was below 0.1 µM; for `CNc1nc2cc(OC[C@H](O)CN3CCC3)c(OC)cc2n1C` [Compound 25], 0.1 to 1 µM; for `CNc1nc2cc(OC[C@H](O)CN3CCCC3)c(OC)cc2n1C` [Compound 26], 0.1 to 1 µM.
Same read-out and setting: for `CCNc1nc2cc(OCCCN3CCCC3)c(OC)cc2n1C` [Compound 27] the value was 0.1 to 1 µM.
Same read-out and setting: the value for `COc1cc2c(cc1OCCCN1CCCC1)nc(NC(C)C)n2C` [Compound 28] was 1 to 10 µM; that for `COc1cc2c(cc1OCCCN1CCCC1)nc(NC1CCOCC1)n2C` [Compound 29] was 1 to 10 µM; that for `COc1cc2c(cc1OCCCN1CCCC1)nc(NC1CCCC1)n2C` [Compound 30] was 1 to 10 µM.
`CCNc1nc2cc(OC[C@H](O)CN3CCCC3)c(OC)cc2n1C` [Compound 31]: the concentration for half-maximal inhibition (IC50) is 0.1 to 1 µM.
On the same count and under the same terms, for `COc1cc2c(cc1OC[C@H](O)CN1CCCC1)nc(NC(C)C)n2C` [Compound 32] the value was 1 to 10 µM.
As to `COc1cc2c(cc1OC[C@H](O)CN1CCCC1)nc(NC1CCCC1)n2C` [Compound 33], the IC50 was in the range of 1 to 10 µM.
Same read-out and setting: for `COc1cc2c(cc1OC[C@H](O)CN1CCCC1)nc(NCC1CC1)n2C` [Compound 34] the value was 0.1 to 1 µM.
The same measure, in the same setting: for `COc1cc2c(cc1OC[C@H](O)CN1CCCC1)nc(NC1CCOCC1)n2C` [Compound 35] the value was above 10 µM; for `CNc1nc2cc(OCCCN3CCCC3)c(OC)cc2n1C(C)C` [Compound 36], below 0.1 µM; for `CNc1nc2cc(CNCCN3CCCC3)c(OC)cc2n1C` [Compound 37], 0.1 to 1 µM.
Turning to `CNc1nc2cc(OC[C@H](O)CN3CCCC3)c(OC)cc2n1C1CCCC1` [Compound 38], the IC50 lay in the range of 0.1 to 1 µM.
